Several values for one entry are separate records, joined by “and”; a condition that tells them apart may be missing. Identical values can stand only once.
System: Symptomatic Acute Lung Injury Associated with COVID-19
Test: Phase 2 study Part 1, inhaled compound 1 in hospitalized COVID-19 patients
Details: for # Subjects Respiratory Failure-Free / # Subjects Alive: number of subjects; for IFN-γ, within-group percent difference in geometric mean from baseline / IL-6, within-group percent difference in geometric mean from baseline / IL-8, within-group percent difference in geometric mean from baseline / IL-10, within-group percent difference in geometric mean from baseline / IP-10, within-group percent difference in geometric mean from baseline / MCP-1, within-group percent difference in geometric mean from baseline / MDC, within-group percent difference in geometric mean from baseline / RAGE, within-group percent difference in geometric mean from baseline / TARC, within-group percent difference in geometric mean from baseline / hsCRP, within-group percent difference in geometric mean from baseline: matched D1 and D7 samples; for Time to Hospital Discharge (Days) Mean ± SD: still hospitalized or died = 28 days; for # Subjects Alive, percent / Died (All-Cause Mortality), number / # Subjects Alive: through Day 28
[1] = COVID-19 patients, 3 mg, Day 21
[2] = COVID-19 patients, 3 mg, Day 28
[3] = COVID-19 patients, 10 mg, Day 7
[4] = COVID-19 patients, 10 mg, Day 14
[5] = COVID-19 patients, 10 mg, Day 21
[6] = COVID-19 patients, 10 mg, Day 28
[7] = mostly in the 3 mg and 10 mg doses

For CCc1cc(O)ccc1-c1ccc2c(-c3nc4c([nH]3)CN(C(C)C)[C@H](C(=O)N3CC(N(C)C)C3)C4)n[nH]c2c1 [Compound 1, (S)-(3-(dimethylamino)azetidin-1-yl)(2-(6-(2-ethyl-4-hydroxyphenyl)-1H-indazol-3-yl)-5-isopropyl-4,5,6,7-tetrahydro-3H-imidazo[4,5-c]pyridin-6-yl)methanone], the “Hospital Discharge, percent” value (COVID-19 patients, 3 mg, Day 14) was 28.6%, the “Hospital Discharge, number” value [1] was 6 and the “Hospital Discharge, percent” value [1] was 86% and 85.7%. For the same compound, the “# Subjects Respiratory Failure-Free, percent” value [2] was 85.7%, the “Hospital Discharge, number” value [2] was 7 and the “Hospital Discharge, percent” value [2] was 100%. For the same compound, the “Proportion of Subjects Alive and Respiratory Failure-free” value [2] was 85.7%, the “Proportion of Subjects Alive and Respiratory Failure-free, number” value [2] was 6 and the “# Subjects Respiratory Failure-Free” value [2] was 6. For the same compound, the “IFN-γ, within-group percent difference in geometric mean from baseline” value (COVID-19 patients, 3 mg) was −90.42%, the “IL-6, within-group percent difference in geometric mean from baseline” value (COVID-19 patients, 3 mg) was −80.24% and the “IL-8, within-group percent difference in geometric mean from baseline” value (COVID-19 patients, 3 mg) was −48.02%. The “IL-10, within-group percent difference in geometric mean from baseline” value (COVID-19 patients, 3 mg) was −70.10%, the “IP-10, within-group percent difference in geometric mean from baseline” value (COVID-19 patients, 3 mg) was −81.44% and the “MCP-1, within-group percent difference in geometric mean from baseline” value (COVID-19 patients, 3 mg) was −54.15%. For the same compound, the “MDC, within-group percent difference in geometric mean from baseline” value (COVID-19 patients, 3 mg) was −23.84%, the “RAGE, within-group percent difference in geometric mean from baseline” value (COVID-19 patients, 3 mg) was −82.95% and the “TARC, within-group percent difference in geometric mean from baseline” value (COVID-19 patients, 3 mg) was −34.57%. The “hsCRP, within-group percent difference in geometric mean from baseline” value (COVID-19 patients, 3 mg) was −74.95%, the “Time to Hospital Discharge (Days) Mean ± SD” value (COVID-19 patients, 3 mg) was 15.29 ± 6.651 days and the “# Subjects Alive, percent” value (COVID-19 patients, 3 mg) was 100.0%. For the same compound, the “Died (All-Cause Mortality), number” value (COVID-19 patients, 3 mg) was 0, the “# Subjects Alive” value (COVID-19 patients, 3 mg) was 7 and the “Clinical Status at Day 28: 1-Not hospitalized, no limitations on activities, number” value (COVID-19 patients, 10 mg) was 5. The “Clinical Status at Day 28: 1-Not hospitalized, no limitations on activities, percent” value (COVID-19 patients, 10 mg) was 83.3%, the “Clinical Status at Day 28: 2-Not hospitalized, but with limitations on activities and/or requiring home oxygen, number” value (COVID-19 patients, 10 mg) was 1 and the “Clinical Status at Day 28: 2-Not hospitalized, but with limitations on activities and/or requiring home oxygen, percent” value (COVID-19 patients, 10 mg) was 16.7%. The “Clinical Status at Day 28: 3-Hospitalized, not requiring supplemental oxygen, and no longer requiring ongoing medical care, number” value (COVID-19 patients, 10 mg) was 0, the “Clinical Status at Day 28: 4-Hospitalized, not requiring supplemental oxygen, but requiring ongoing medical care, number” value (COVID-19 patients, 10 mg) was 0 and the “Clinical Status at Day 28: 5-Hospitalized, requiring supplemental oxygen, number” value (COVID-19 patients, 10 mg) was 0. For the same compound, the “Clinical Status at Day 28: 6-Hospitalized, on non-invasive ventilation or high-flow oxygen devices, number” value (COVID-19 patients, 10 mg) was 0, the “Clinical Status at Day 28: 7-Hospitalized, on invasive mechanical ventilation or extracorporeal membrane oxygenation, number” value (COVID-19 patients, 10 mg) was 0 and the “Clinical Status at Day 28: 8-Death, number” value (COVID-19 patients, 10 mg) was 0. For the same compound, the “Still in Hospital at Day 28, number” value (COVID-19 patients, 10 mg) was 0, the “Time to Hospital Discharge (Days) Median” value (COVID-19 patients, 10 mg) was 16.50 days and the “Modified Borg Dyspnea Score, Baseline, Mean” value (COVID-19 patients, 10 mg group, baseline value) was 6.00. For the same compound, the “Modified Borg Dyspnea Score Change from Baseline, Mean” value (from here on “Modified Borg Dyspnea Score Change”) (COVID-19 patients, 10 mg, Day 2) was −0.33, the “Modified Borg Dyspnea Score Change” value (COVID-19 patients, 10 mg, Day 3) was −1.17 and the “Modified Borg Dyspnea Score Change” value (COVID-19 patients, 10 mg, Day 4) was −1.50. For the same compound, the “Modified Borg Dyspnea Score Change” value (COVID-19 patients, 10 mg, Day 5) was −1.17, the “Modified Borg Dyspnea Score Change” value (COVID-19 patients, 10 mg, Day 6) was −1.33 and the “Hospital Discharge, number” value [3] was 0. The “Modified Borg Dyspnea Score Change” value [3] was −1.67, the “Hospital Discharge, number” value [4] was 2 and the “Hospital Discharge, percent” value [4] was 33.3%. For the same compound, the “Hospital Discharge, number” value [5] was 6, the “Hospital Discharge, percent” value [5] was 100% and the “# Subjects Respiratory Failure-Free, percent” value [6] was 100.0%. The “Hospital Discharge, number” value [6] was 6, the “Hospital Discharge, percent” value [6] was 100% and the “Proportion of Subjects Alive and Respiratory Failure-free” value [6] was 100.0%. The “Proportion of Subjects Alive and Respiratory Failure-free, number” value [6] was 6, the “# Subjects Respiratory Failure-Free” value [6] was 6 and the “IFN-γ, within-group percent difference in geometric mean from baseline” value (COVID-19 patients, 10 mg) was −78.59%. For the same compound, the “IL-6, within-group percent difference in geometric mean from baseline” value (COVID-19 patients, 10 mg) was −58.84%, the “IL-8, within-group percent difference in geometric mean from baseline” value (COVID-19 patients, 10 mg) was −25.87% and the “IL-10, within-group percent difference in geometric mean from baseline” value (COVID-19 patients, 10 mg) was −40.57%. The “IP-10, within-group percent difference in geometric mean from baseline” value (COVID-19 patients, 10 mg) was −79.32%, the “MCP-1, within-group percent difference in geometric mean from baseline” value (COVID-19 patients, 10 mg) was −21.15% and the “MDC, within-group percent difference in geometric mean from baseline” value (COVID-19 patients, 10 mg) was −6.70%. The “RAGE, within-group percent difference in geometric mean from baseline” value (COVID-19 patients, 10 mg) was −54.44%, the “TARC, within-group percent difference in geometric mean from baseline” value (COVID-19 patients, 10 mg) was −21.21% and the “hsCRP, within-group percent difference in geometric mean from baseline” value (COVID-19 patients, 10 mg) was −52.13%. The “Time to Hospital Discharge (Days) Mean ± SD” value (COVID-19 patients, 10 mg) was 15.17 ± 4.446 days, the “# Subjects Alive, percent” value (COVID-19 patients, 10 mg) was 100.0% and the “Died (All-Cause Mortality), number” value (COVID-19 patients, 10 mg) was 0. For the same compound, the “# Subjects Alive” value (COVID-19 patients, 10 mg) was 6, the tolerability (COVID-19 patients, single daily dose of 1 mg, 3 mg, and 10 mg for up to 7 days) was “generally well tolerated” and the “% subjects alive/reduced mortality, compared to Placebo” value (all compound 1 groups) was “positive trend”. For the same compound, the “% subjects respiratory-failure free at Day 28, compared to Placebo” value (all compound 1 groups) was “positive trend”, the “clinical improvement, 8-point Clinical Status Scale from Day 1 to Day 28, compared to Placebo” value (all compound 1 groups) was “positive trend” and the “earlier time to hospital discharge, compared to Placebo” value (all compound 1 groups) was “positive trend”. The “improvement in Modified Borg Dyspnea Score in mean change from baseline at Day 7, compared to Placebo” value (all compound 1 groups) was “positive trend”, the “reduction in alveolar epithelial cell injury marker RAGE” value [7] was “positive trend” and the “reduction of inflammation markers including hsCRP, IFN-g, IL-6, IP-10” value [7] was “positive trend”.
